In patent US6620828B2, “Thiazole compounds and pharmaceutical compositions for inhibiting protein kinases and methods for their use” (Agouron Pharmaceuticals, Inc., priority 1999, dated 2003):

Test system: human umbilical vein endothelial cells (HUVEC)
Experiment: HUVEC proliferation assay
Format: cell-based
Details: Homo sapiens, HUVEC, 10 nM; crude combinatorial urea library; read-out: Inhibition of HUVEC Proliferation % inhibition @ 10 nM
How it was run: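 Exponentially growing HUVEC were serum-starved 24 h (F12K + 1% FBS), pre-treated 1 h with compound (0.1% DMSO final), then stimulated with 6 ng/ml VEGF. Proliferation was read 72 h later by MTT reduction (A595). IC50 came from seven 0.5-log concentrations in triplicate; screens gave % inhibition relative to VEGF-only and starved wells.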

Compared with `COc1cccc(C(=O)Nc2cccc(-c3csc(-c4sc(NC(=O)NCc5ccc(N(C)C)cc5)nc4N)n3)c2)c1`, `COc1cccc(C(=O)Nc2cccc(-c3csc(-c4sc(NC(=O)NCCN(C)C)nc4N)n3)c2)c1` is lower in inhibition at 0.01 µM: 19% for the first, -11% for the second.

Going from `COc1cccc(C(=O)Nc2cccc(-c3csc(-c4sc(NC(=O)NCCCN5CCCC5=O)nc4N)n3)c2)c1` to `COc1cccc(C(=O)Nc2cccc(-c3csc(-c4sc(NC(=O)NCCCN5CCCC5)nc4N)n3)c2)c1`, the inhibition at 0.01 µM falls from 28% to 1%.

Going from `COc1cccc(C(=O)Nc2cccc(-c3csc(-c4sc(NC(=O)NCC5CCC=CO5)nc4N)n3)c2)c1` (stereo not shown) to `COc1cccc(C(=O)Nc2cccc(-c3csc(-c4sc(NC(=O)NCC(C)O)nc4N)n3)c2)c1` (stereo not shown), the inhibition at 0.01 µM rises from -5% to 7%.

Same assay, conditions: Homo sapiens, HUVEC, 50 nM; crude combinatorial urea library; read-out: Inhibition of HUVEC Proliferation % inhibition @ 50 nM

Compared with `COc1cccc(C(=O)Nc2cccc(-c3csc(-c4sc(NC(=O)NCc5ccc(N(C)C)cc5)nc4N)n3)c2)c1`, `COc1cccc(C(=O)Nc2cccc(-c3csc(-c4sc(NC(=O)NCCN(C)C)nc4N)n3)c2)c1` is lower in inhibition at 0.05 µM: 67% for the first, 46% for the second.

First: COc1cccc(C(=O)Nc2cccc(-c3csc(-c4sc(NC(=O)NCCCN5CCCC5=O)nc4N)n3)c2)c1
Second: COc1cccc(C(=O)Nc2cccc(-c3csc(-c4sc(NC(=O)NCCCN5CCCC5)nc4N)n3)c2)c1
The inhibition at 0.05 µM of the first is higher: 123% for the first, 101% for the second.

First: COc1cccc(C(=O)Nc2cccc(-c3csc(-c4sc(NC(=O)NCC5CCC=CO5)nc4N)n3)c2)c1 (stereo not shown)
Second: COc1cccc(C(=O)Nc2cccc(-c3csc(-c4sc(NC(=O)NCC(C)O)nc4N)n3)c2)c1 (stereo not shown)
The inhibition at 0.05 µM of the first is lower: 33% for the first, 126% for the second.

Same assay, conditions: Homo sapiens, HUVEC, Inhibition of HUVEC Proliferation; 50 nM; crude combinatorial urea library; read-out: % inhibition @ 50 nM

Going from `COc1cccc(C(=O)Nc2cc(-c3csc(-c4sc(NC(=O)NCC(=O)NO)nc4N)n3)c(F)cc2F)c1` to `COc1cccc(C(=O)Nc2cc(-c3csc(-c4sc(NC(=O)NCCC(=O)O)nc4N)n3)c(F)cc2F)c1`, the inhibition at 0.05 µM rises from 19% to 66%.

Going from `COc1cccc(C(=O)Nc2cc(-c3csc(-c4sc(NC(=O)NCc5ccccn5)nc4N)n3)c(F)cc2F)c1` [drawing 705] to `COc1cccc(C(=O)Nc2cc(-c3csc(-c4sc(NC(=O)NC(C)CO)nc4N)n3)c(F)cc2F)c1` (stereo not shown), the inhibition at 0.05 µM falls from 118% to 98%.

Going from `COc1cccc(C(=O)Nc2cc(-c3csc(-c4sc(NC(=O)NCCCCN(C)C)nc4N)n3)c(F)cc2F)c1` to `COc1cccc(C(=O)Nc2cc(-c3csc(-c4sc(NC(=O)NCCNC(C)=O)nc4N)n3)c(F)cc2F)c1`, the inhibition at 0.05 µM rises from 30% to 105%.

Compared with `COc1cccc(C(=O)Nc2cc(-c3csc(-c4sc(NC(=O)NCCN5CCOCC5)nc4N)n3)c(F)cc2F)c1` [drawing 700], `CCN1CC(NC(=O)Nc2nc(N)c(-c3nc(-c4cc(NC(=O)c5cccc(OC)c5)c(F)cc4F)cs3)s2)CN1CC` is lower in inhibition at 0.05 µM: 96% for the first, 82% for the second.

`COc1cccc(C(=O)Nc2cc(-c3csc(-c4sc(NC(=O)N[C@@H](CC(N)=O)C(N)=O)nc4N)n3)c(F)cc2F)c1` showed an inhibition at 0.05 µM of 32%.

Same assay, conditions: Homo sapiens, HUVEC, Inhibition of HUVEC Proliferation; 50 nM; crude combinatorial urea library; read-out: Inhibition @ 50 nM

First: COc1cccc(C(=O)Nc2cc(-c3noc(-c4sc(NC(=O)NCC#N)nc4N)n3)c(F)cc2F)c1
Second: COc1cccc(C(=O)Nc2cc(-c3noc(-c4sc(NC(=O)NCC(=O)O)nc4N)n3)c(F)cc2F)c1
The inhibition at 0.05 µM of the first is lower: 12% for the first, 73% for the second.

Going from `COc1cccc(C(=O)Nc2cc(-c3noc(-c4sc(NC(=O)NCC(F)(F)F)nc4N)n3)c(F)cc2F)c1` to `COc1cccc(C(=O)Nc2cc(-c3noc(-c4sc(NC(=O)NCC(C)N(C)C)nc4N)n3)c(F)cc2F)c1` (stereo not shown), the inhibition at 0.05 µM falls from 89% to -25%.

First: COc1cccc(C(=O)Nc2cc(-c3noc(-c4sc(NC(=O)NCCNc5ccccc5)nc4N)n3)c(F)cc2F)c1
Second: CCC(CO)NC(=O)Nc1nc(N)c(-c2nc(-c3cc(NC(=O)c4cccc(OC)c4)c(F)cc3F)no2)s1 (stereo not shown)
The inhibition at 0.05 µM of the first is higher: 89% for the first, 81% for the second.

Compared with `COc1cccc(C(=O)Nc2cc(-c3noc(-c4sc(NC(=O)NC(=O)NCC5(O)CCCCC5)nc4N)n3)c(F)cc2F)c1`, `COc1cccc(C(=O)Nc2cc(-c3noc(-c4sc(NC(=O)NCC5CCC=CO5)nc4N)n3)c(F)cc2F)c1` (stereo not shown) is lower in inhibition at 0.05 µM: 99% for the first, 93% for the second.

Same assay, conditions: Homo sapiens, HUVEC, Table I screening results; 150 nM; crude combinatorial amide library

First: COc1cc(Nc2nc(N)c(-c3nc(-c4cccc(NC(=O)C(Cc5ccccc5)c5ccccc5)c4)cs3)s2)cc(OC)c1OC (stereo not shown)
Second: COc1cc(Nc2nc(N)c(-c3nc(-c4cccc(NC(=O)Cc5ccc(F)cc5)c4)cs3)s2)cc(OC)c1OC
The inhibition at 0.15 µM of the first is higher: 11% for the first, -7% for the second.

Compared with `COc1cc(Nc2nc(N)c(-c3nc(-c4cccc(NC(=O)c5ccc(Br)o5)c4)cs3)s2)cc(OC)c1OC` [drawing 929], `COc1cc(Nc2nc(N)c(-c3nc(-c4cccc(NC(=O)c5ccco5)c4)cs3)s2)cc(OC)c1OC` is lower in inhibition at 0.15 µM: 34% for the first, 15% for the second.

Going from `C=CCCC(=O)Nc1cccc(-c2csc(-c3sc(Nc4cc(OC)c(OC)c(OC)c4)nc3N)n2)c1` to `CCC(C)CC(=O)Nc1cccc(-c2csc(-c3sc(Nc4cc(OC)c(OC)c(OC)c4)nc3N)n2)c1` (stereo not shown), the inhibition at 0.15 µM falls from 5% to -3%.

Compared with `COc1cc(Nc2nc(N)c(-c3nc(-c4cccc(NC(=O)c5ccncc5)c4)cs3)s2)cc(OC)c1OC`, `COc1cc(Nc2nc(N)c(-c3nc(-c4cccc(NC(=O)Cc5cccc(Cl)c5)c4)cs3)s2)cc(OC)c1OC` is higher in inhibition at 0.15 µM: 1% for the first, 30% for the second.
